Earlier results on one compound are cited in patent publication US20250268885A1, “ORAL COMPOSITION COMPRISING NICOTINAMIDE” (CONARIS Research Institute AG, priority 2022, published 2025).

The conditions of this series: sources collected in PubChem.

On to `NC(=O)c1cccnc1` [Nicotinamide, nicotinamide], for which the “solubility relative to diclofenac sodium” value is on record as “several orders of magnitude higher”.
